Assay results from ChEMBL document CHEMBL3045199, “Synthesis of some (E)-6-[2-(furan-2-yl)ethenyl]-1,2,4-triazin-5-ones and their biological evaluation as antitumor agents” (2013).

Assays:
Type in all cases: functional
[1] = system: HCT-15; assay: Cytotoxicity against Homo sapiens (human) HCT15 cells assessed as growth inhibition at 10 uM after 24 hr; details: HCT-15, 24 h, read-out: GI
[2] = system: HCT-116; assay: Cytotoxicity against Homo sapiens (human) HCT116 cells assessed as growth inhibition at 10 uM after 24 hr; details: HCT-116, 24 h, read-out: GI
[3] = system: RXF 393; assay: Cytotoxicity against Homo sapiens (human) RXF393 cells assessed as growth inhibition at 10 uM after 24 hr; details: RXF 393, 24 h, read-out: GI
[4] = system: UO-31; assay: Cytotoxicity against Homo sapiens (human) UO31 cells assessed as growth inhibition at 10 uM after 24 hr; details: UO-31, 24 h, read-out: GI
[5] = system: SF-268; assay: Cytotoxicity against Homo sapiens (human) SF268 cells assessed as growth inhibition at 10 uM after 24 hr; details: SF-268, 24 h, read-out: GI
[6] = system: RPMI-8226; assay: Cytotoxicity against Homo sapiens (human) RPMI8226 cells assessed as growth inhibition at 10 uM after 24 hr; details: RPMI-8226, 24 h, read-out: GI
[7] = Cytotoxicity against Homo sapiens (human) leukemia cells after 48 hr by SRB assay; details: Leukemia cell
[8] = system: UACC-62; assay: Cytotoxicity against Homo sapiens (human) UACC62 cells assessed as growth inhibition at 10 uM after 24 hr; details: UACC-62, 24 h, read-out: GI
[9] = system: PC-3; assay: Cytotoxicity against Homo sapiens (human) PC3 cells assessed as growth inhibition at 10 uM after 24 hr; details: PC-3, 24 h, read-out: GI
[10] = Cytotoxicity against Homo sapiens (human) non-small cell lung cancer cells after 48 hr by SRB assay; details: Cancer cell lines
[11] = Cytotoxicity against Homo sapiens (human) NCI-ADR-RES cells assessed as growth inhibition at 10 uM after 24 hr; details: read-out: GI
[12] = system: HT-29; assay: Cytotoxicity against Homo sapiens (human) HT-29 cells assessed as growth inhibition at 10 uM after 24 hr; details: HT-29, 24 h, read-out: GI
[13] = system: SR; assay: Cytotoxicity against Homo sapiens (human) SR cells assessed as growth inhibition at 10 uM after 24 hr; details: read-out: GI
[14] = system: ACHN; assay: Cytotoxicity against Homo sapiens (human) ACHN cells assessed as growth inhibition at 10 uM after 24 hr; details: read-out: GI
[15] = system: SK-MEL-5; assay: Cytotoxicity against Homo sapiens (human) SK-MEL-5 cells assessed as growth inhibition at 10 uM after 24 hr; details: SK-MEL-5, 24 h, read-out: GI
[16] = system: MDA-MB-435; assay: Cytotoxicity against Homo sapiens (human) MDA-MB-435 cells after 48 hr by SRB assay; details: MDA-MB-435, 48 h
[17] = system: UACC-257; assay: Cytotoxicity against Homo sapiens (human) UACC257 cells assessed as growth inhibition at 10 uM after 24 hr; details: UACC-257, 24 h, read-out: GI
[18] = Cytotoxicity against Homo sapiens (human) breast cancer cells after 48 hr by SRB assay; details: Cancer cell lines
[19] = system: SK-OV-3; assay: Cytotoxicity against Homo sapiens (human) SKOV3 cells assessed as growth inhibition at 10 uM after 24 hr; details: SK-OV-3, 24 h, read-out: GI
[20] = system: MDA-MB-468; assay: Cytotoxicity against Homo sapiens (human) MDA-MB-468 cells after 48 hr by SRB assay; details: MDA-MB-468, 48 h
[21] = system: KM12; assay: Cytotoxicity against Homo sapiens (human) KM12 cells assessed as growth inhibition at 10 uM after 24 hr; details: KM12, 24 h, read-out: GI
[22] = system: A498; assay: Cytotoxicity against Homo sapiens (human) A498 cells assessed as growth inhibition at 10 uM after 24 hr; details: A498, 24 h, read-out: GI
[23] = Cytotoxicity against Homo sapiens (human) NCI-ADR-RES cells after 48 hr by SRB assay
[24] = system: SNB-75; assay: Cytotoxicity against Homo sapiens (human) SNB75 cells assessed as growth inhibition at 10 uM after 24 hr; details: SNB-75, 24 h, read-out: GI
[25] = Cytotoxicity against Homo sapiens (human) melanoma cells after 48 hr by SRB assay; details: Melanoma cell
[26] = system: HOP-92; assay: Cytotoxicity against Homo sapiens (human) HOP92 cells assessed as growth inhibition at 10 uM after 24 hr; details: HOP-92, 24 h, read-out: GI
[27] = Cytotoxicity against Homo sapiens (human) renal cancer cells after 48 hr by SRB assay; details: Cancer cell lines
[28] = system: HL-60(TB); assay: Cytotoxicity against Homo sapiens (human) HL-60(TB) cells assessed as growth inhibition at 10 uM after 24 hr; details: HL-60, 24 h, read-out: GI
[29] = Cytotoxicity against Homo sapiens (human) prostate cancer cells after 48 hr by SRB assay; details: Cancer cell lines
[30] = system: OVCAR-8; assay: Cytotoxicity against Homo sapiens (human) OVCAR8 cells assessed as growth inhibition at 10 uM after 24 hr; details: OVCAR-8, 24 h, read-out: GI
[31] = system: MCF7; assay: Cytotoxicity against Homo sapiens (human) MCF7 cells assessed as growth inhibition at 10 uM after 24 hr; details: MCF7, 24 h, read-out: GI
[32] = system: OVCAR-4; assay: Cytotoxicity against Homo sapiens (human) OVCAR4 cells assessed as growth inhibition at 10 uM after 24 hr; details: OVCAR-4, 24 h, read-out: GI
[33] = system: DU-145; assay: Cytotoxicity against Homo sapiens (human) DU145 cells assessed as growth inhibition at 10 uM after 24 hr; details: DU-145, 24 h, read-out: GI
[34] = system: A549; assay: Cytotoxicity against Homo sapiens (human) A549/ATCC cells assessed as growth inhibition at 10 uM after 24 hr; details: A549, 24 h, read-out: GI
[35] = system: EKVX; assay: Cytotoxicity against Homo sapiens (human) EKVX cells assessed as growth inhibition at 10 uM after 24 hr; details: read-out: GI
[36] = system: CCRF-CEM; assay: Cytotoxicity against Homo sapiens (human) CCRF-CEM cells assessed as growth inhibition at 10 uM after 24 hr; details: read-out: GI
[37] = system: MDA-MB-435; assay: Cytotoxicity against Homo sapiens (human) MDA-MB-435 cells assessed as growth inhibition at 10 uM after 24 hr; details: MDA-MB-435, 24 h, read-out: GI
[38] = read-out: LC50 (the source's name)

Structure (SMILES): Nc1cc(-c2ccc(Cl)cc2)nn1-c1nc(=O)c(/C=C/c2ccco2)n[nH]1
- inhibition of growth at 10 µM [1]: 61.9%
- inhibition of growth at 10 µM [2]: 59%
- inhibition of growth at 10 µM [3]: 32.2%
- inhibition of growth at 10 µM [4]: 96.1%
- inhibition of growth at 10 µM [5]: 47.5%
- inhibition of growth at 10 µM [6]: 56.7%
- GI50 [7]: 2.71 µM
- TGI [7]: 17.9 µM
- CC50 [7, 38]: > 100 µM
- inhibition of growth at 10 µM [8]: 47.5%
- inhibition of growth at 10 µM [9]: 47.4%
- GI50 [10]: 4.47 µM
- TGI [10]: 41.1 µM
- CC50 [10, 38]: > 100 µM
- inhibition of growth at 10 µM [11]: 94.3%
- inhibition of growth at 10 µM [12]: 55.8%
- inhibition of growth at 10 µM [13]: 61.9%
- inhibition of growth at 10 µM [14]: 70.6%
- inhibition of growth at 10 µM [15]: 54%
- GI50 [16]: 5.22 µM
- TGI [16]: > 100 µM
- CC50 [16, 38]: > 100 µM
- inhibition of growth at 10 µM [17]: 30.4%
- GI50 [18]: 6.39 µM
- TGI [18]: 48.1 µM
- CC50 [18, 38]: > 100 µM
- inhibition of growth at 10 µM [19]: 39.3%
- GI50 [20]: 3.08 µM
- TGI [20]: 22.2 µM
- CC50 [20, 38]: > 100 µM
- inhibition of growth at 10 µM [21]: 44%
- inhibition of growth at 10 µM [22]: 66.2%
- GI50 [23]: 1.23 µM
- TGI [23]: 8.11 µM
- CC50 [23, 38]: 96.4 µM
- inhibition of growth at 10 µM [24]: 32.6%
- GI50 [25]: 6.7 µM
- TGI [25]: 59.3 µM
- CC50 [25, 38]: > 100 µM
- inhibition of growth at 10 µM [26]: 39.7%
- GI50 [27]: 5.85 µM
- TGI [27]: 37.4 µM
- CC50 [27, 38]: > 100 µM
- inhibition of growth at 10 µM [28]: 4.83%
- GI50 [29]: 4.3 µM
- TGI [29]: 40.1 µM
- CC50 [29, 38]: 50 µM
- inhibition of growth at 10 µM [30]: 75.2%
- inhibition of growth at 10 µM [31]: 54.1%
- inhibition of growth at 10 µM [32]: 70.9%
- inhibition of growth at 10 µM [33]: 36.7%
- inhibition of growth at 10 µM [34]: 62.7%
- inhibition of growth at 10 µM [35]: 58.3%
- inhibition of growth at 10 µM [36]: 66.1%
- inhibition of growth at 10 µM [37]: 37.2%
